# Assay results from US20220400670A1, “PROTOPANAXATRIOL (PPT)-TYPE COMPOUNDS AS ACTIVE INGREDIENTS IN INSECTICIDE PRODUCTS” (priority 2019, published 2022).
# Marks after values point to notes of the source that are not given here.
# What was measured:
# [1] = tested on: Silverleaf whitefly biotype Q (neonicotinoid-resistant strain); experiment: Lab tests in cotton: nymph mortality of silverleaf whitefly biotype Q; format: in vivo, Bemisia tabaci; conditions: cotton plants
# Protocol: (§1) Cotton plants were grown in pots and sprayed with the indicated materials using a hand-sprayer. 20-25 females of Silverleaf whitefly biotype B (neonicotinoid-sensitive strain) or biotype Q (neonicotinoid-resistant strain) were transferred to each pot and attached to the treated leaves. Nymphs mortality was evaluated 1 and 2 weeks after treatment application and determined by percent (%) of pupation.
# [2] = tested on: Silverleaf whitefly biotype B (neonicotinoid-sensitive strain); experiment: Lab tests in cotton: nymph mortality of silverleaf whitefly biotype B; format: in vivo, Bemisia tabaci; conditions: cotton plants; acetamiprid-treated (FIG. 3A)
# Protocol: as §1
# Aphids (Aphis gossypii) = experiment: Field tests in cotton: number of Aphids; format: in vivo; conditions: 6 days after the third application; EOS 1%, spinosad 60.5 g/ha, PPT 100 or 300 g/ha (FIG. 4B)
# Text: Cotton plants were sprayed 3-4 times at 6-7 days interval with the indicated materials at a volume of 400 liter per hectare. The experiment included 4-5 repeats in random blocks of cotton plants growth, each repeat at an area of 8-10 m^2. The number of Thrips adults or larva, as well as the number of Aphids (Aphis gossypii), on each leaf was counted using OptiVISOR® magnifying device.
# [3] = tested on: Spodoptera littoralis stage 2-3 larva; experiment: Screening assay for lethality; format: in vivo; conditions: PPT 50 ppm added to artificial medium; 3 screens, 4 larva replicates each
# Protocol: Spodoptera littoralis stage 2-3 larva were grown in entomology trays on artificial medium. Treatment with PPT was effected by the addition of PPT (50 ppm) to the medium and lethality was assessed. The screening assay was repeated 3 times, with 4 larva replicates in each screen.
# [4] = tested on: Pink Bollworm (Pectinophora gossypiella); experiment: Lab tests on pink bollworm eggs: hatching and larva development; format: in vivo; conditions: 0.15% PPT solution, 5 repeats
# Text: Paper cuttings with Egg clusters of pink bollworm were soaked in a 0.15% PPT solution, and hatching and larva development were observed compared to untreated controls (UTC).
# Thrips tabaci [5] = experiment: Field tests in cauliflower: Thrips on leaves and Thrips-induced damage; format: in vivo; conditions: another experiment, diafenthiuron 375 g/ha, PPT 400 g/ha; for Thrips adults per leaf / Thrips larva per leaf: cauliflower
# Text: Cauliflower plants of White Corona variety at 20-30 cm height were sprayed twice at a 7 days interval with the indicted materials at a volume of 400-500 liter per hectare, using 3-nozzled ECHO backpack sprayer. The experiment included 4 repeats in random blocks of […] plants growth, each repeat at an area of 20 m^2. plots having high levels of Thrips tabaci (Thrips) infestation (5-10 Thrips per leaf) at uniform distribution at the beginning of the experiment were chosen for analysis, and 10 leaves per plot were picked and assessed for Thrips number. The number of Thrips adults or larva on each leaf was counted using OptiVISOR® magnifying device. The number of silverleaf whitefly (SLW) nymphs on each leaf was also counted using OptiVISOR® magnifying device.
# At the end of the experiment the damage to the upper side of leaves caused by Thrips infestation was assessed on a scale of 0-5, where 0 equals no damage and 5 equals scraping on the leaf's blade (surface).
# Thrips tabaci [6] = experiment: Field tests in cucumber: number of Thrips on leaves; format: in vivo; conditions: second experiment
# Text: Cucumber plants of kingstar variety at 170-190 cm height were sprayed twice at a 4 days interval with the indicted materials at a volume of 400-600 liter per hectare, using 3-nozzled ECHO backpack sprayer. The experiment included 4 repeats in random blocks of cucumber plants growth, each repeat at an area of 10-16 m^2. Plots having high levels of Thrips tabaci (Thrips) infestation (5-10 Thrips per leaf) at uniform distribution at the beginning of the experiment were chosen for analysis, and 10 leaves at shoulder height were picked and the number of Thrips was determined for each leaf.
# [7] = 4 DPA, neem oil 1%, PPT alone 225 g/ha
# [8] = 9 DPA, neem oil 1%, PPT alone 225 g/ha
# [9] = Day 0 (baseline), neem oil 1%, PPT alone 225 g/ha
compound,measurement,setting,value
"C/C(=N\C#N)N(C)Cc1ccc(Cl)nc1 [Acetamiprid, reference compound]","nymph mortality of SLW biotype Q, determined by percent of pupation",[1]; acetamiprid 10 ppm (FIG. 3B),had no effect
same,"nymph mortality of SLW biotype B, determined by percent of pupation",[2],efficient in eliminating SLW nymphs
spinosad,number of Aphids on the cotton plants,Aphids (Aphis gossypii),little or no effect
"CC(C)=CCC[C@](C)(O)[C@H]1CC[C@]2(C)[C@@H]1[C@H](O)C[C@@H]1[C@@]3(C)CC[C@H](O)C(C)(C)[C@@H]3[C@@H](O)C[C@]12C [PPT, Protopanaxatriol]",mortality of resistant SLW biotype (Q) nymphs,"[1]; PPT 0.075% (0.5x) or 0.15% (1x), dose-dependent (FIG. 3B)",up to 93%
same,lethality to larva,[3],lethal
same,Average number of hatchings,[4]; day 9 after treatment,0.2
same,Average number of larva,[4]; day 16 post treatment,0
same,Average number of late hatchings,[4]; day 16 post treatment,1.8
same,% efficacy on Thrips larva in cauliflower leaves,Thrips tabaci [5]; 7 DPA,60%
same,% efficacy on Thrips larva in cauliflower leaves,Thrips tabaci [5]; 14 DPA,60%
same,Thrips adults per leaf,Thrips tabaci [5]; 7 DPA,0.6 per leaf
same,Thrips larva per leaf,Thrips tabaci [5]; 7 DPA,5.9 per leaf
same,Thrips adults per leaf,Thrips tabaci [5]; 14 DPA,"0.48^a,b per leaf"
same,Thrips larva per leaf,Thrips tabaci [5]; 14 DPA,"4.4^a,b per leaf"
same,Thrips adults per leaf,Thrips tabaci [5]; Day 0 (baseline),3.0 per leaf
same,Thrips larva per leaf,Thrips tabaci [5]; Day 0 (baseline),16.5 per leaf
same,% efficacy on Thrips in cucumber leaves,"Thrips tabaci [6]; 4 DPA, PPT 500 g/ha",65.8%
same,Number of Thrips adults on 10 cucumber leaves,"Thrips tabaci [6]; 4 DPA, PPT 500 g/ha",42.5
same,Number of Thrips larva on 10 cucumber leaves,"Thrips tabaci [6]; 4 DPA, PPT 500 g/ha",30.0^a
same,Number of total Thrips (adults and larva) on 10 cucumber leaves,"Thrips tabaci [6]; 4 DPA, PPT 500 g/ha",72.5^a
same,% efficacy on Thrips in cucumber leaves,Thrips tabaci [6]; [7],41.4%
same,Number of Thrips adults on 10 cucumber leaves,Thrips tabaci [6]; [7],78.3
same,Number of Thrips larva on 10 cucumber leaves,Thrips tabaci [6]; [7],45.8^a
same,Number of total Thrips (adults and larva) on 10 cucumber leaves,Thrips tabaci [6]; [7],124.0
same,Number of Thrips adults on 10 cucumber leaves,"Thrips tabaci [6]; 9 DPA, PPT 500 g/ha",18.0
same,Number of Thrips larva on 10 cucumber leaves,"Thrips tabaci [6]; 9 DPA, PPT 500 g/ha",13.0
same,Number of total Thrips (adults and larva) on 10 cucumber leaves,"Thrips tabaci [6]; 9 DPA, PPT 500 g/ha",31.0
same,Number of Thrips adults on 10 cucumber leaves,Thrips tabaci [6]; [8],22.3
same,Number of Thrips larva on 10 cucumber leaves,Thrips tabaci [6]; [8],38.8
same,Number of total Thrips (adults and larva) on 10 cucumber leaves,Thrips tabaci [6]; [8],61.0
same,Number of Thrips adults on 10 cucumber leaves,"Thrips tabaci [6]; Day 0 (baseline), PPT 500 g/ha",41.8
same,Number of Thrips larva on 10 cucumber leaves,"Thrips tabaci [6]; Day 0 (baseline), PPT 500 g/ha",110.0
same,Number of total Thrips (adults and larva) on 10 cucumber leaves,"Thrips tabaci [6]; Day 0 (baseline), PPT 500 g/ha",151.8
same,Number of Thrips adults on 10 cucumber leaves,Thrips tabaci [6]; [9],36.0
same,Number of Thrips larva on 10 cucumber leaves,Thrips tabaci [6]; [9],95.8
same,Number of total Thrips (adults and larva) on 10 cucumber leaves,Thrips tabaci [6]; [9],131.8
"CC(C)c1cc(Oc2ccccc2)cc(C(C)C)c1NC(=S)NC(C)(C)C [Diafenthiuron, reference compound]",% efficacy on Thrips larva in cauliflower leaves,Thrips tabaci [5]; 7 DPA,10%
same,% efficacy on Thrips larva in cauliflower leaves,Thrips tabaci [5]; 14 DPA,0%
same,Thrips adults per leaf,Thrips tabaci [5]; 7 DPA,1.3 per leaf
same,Thrips larva per leaf,Thrips tabaci [5]; 7 DPA,13.9 per leaf
same,Thrips adults per leaf,Thrips tabaci [5]; 14 DPA,2.1 per leaf
same,Thrips larva per leaf,Thrips tabaci [5]; 14 DPA,9.8 per leaf
same,Thrips adults per leaf,Thrips tabaci [5]; Day 0 (baseline),2.9 per leaf
same,Thrips larva per leaf,Thrips tabaci [5]; Day 0 (baseline),13.0 per leaf
